Among the test systems are SK-MEL-28; SN12C; SNB-19; A549; M19-MEL; KM12; HL-60; OVCAR-5; OVCAR-4; HT-29; RXF 393; SK-MEL-5; SR; K562; DMS-273; T47D; DU-145; NCI/ADR-RES; Hs-578T; MDA-N.
Holding throughout (assay): growth of human tumour cells (NCI), 48 h

We go through 14 compounds from ChEMBL document CHEMBL1201862, “PubChem BioAssay data set” (2004).

Each structure is given as a SMILES string.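 In this assay, cells in 96-well plates receive the compound at five concentrations for 48 hours. Endpoints are linearly interpolated between the surrounding concentrations. GI50: concentration for 50% inhibition of growth.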 Calls of active or inactive are those of the source. No stated cut-off is given here; in the data, active = GI50 up to about 1.1 µM and inactive = higher.

Take `CCOc1ccc(NC(=O)CC2SC(N)=NC2=O)cc1` (stereo not given): the GI50 in the assay on SK-MEL-28, in the assay on SN12C, in the assay with SNB-19, in the assay on A549, with M19-MEL and with KM12 was > 100 µM (inactive) throughout. Also, the GI50 with HL-60, with OVCAR-5, with OVCAR-4, with HT-29, in the assay on RXF 393 and in the assay with SK-MEL-5 was > 100 µM (inactive) in each case.
Regarding `O=C(Nc1c(Cl)cc([N+](=O)[O-])cc1Cl)C(=O)C(C1OC(=O)c2ccccc21)[N+](=O)[O-]` (stereo not given), the GI50 with SR, with SK-MEL-28, in the assay on K562, in the assay on SN12C, in the assay with SNB-19 and in the assay with A549 was > 100 µM (inactive) throughout. Besides, the GI50 in the assay with M19-MEL, in the assay on KM12, in the assay on HL-60, in the assay with OVCAR-5, in the assay on OVCAR-4 and with HT-29 was > 100 µM (inactive) in each case. In addition, the GI50 with RXF 393 and in the assay with SK-MEL-5 was > 100 µM (inactive) each time.
Consider `CCNC(C)Cc1ccccc1` (stereo not given), for which the GI50 with SR, with SK-MEL-28, in the assay on K562, with SN12C, with SNB-19 and in the assay with DMS-273 was > 100 µM (inactive) throughout. Further, the GI50 in the assay with A549, in the assay with KM12, in the assay with HL-60, in the assay with OVCAR-5, in the assay with OVCAR-4 and with HT-29 was > 100 µM (inactive) throughout. Also, the GI50 with RXF 393 and with SK-MEL-5 was > 100 µM (inactive) throughout.
For `COc1ccc(OC(C(=O)O)C(C)C)c2c1CCCC2=O` (stereo not given), the GI50 with SK-MEL-28, with K562, with SN12C, in the assay on SNB-19, with DMS-273 and with A549 was > 100 µM (inactive) in each case. Further, the GI50 in the assay on M19-MEL, with KM12, in the assay with HL-60, in the assay on OVCAR-5, with OVCAR-4 and in the assay with HT-29 was > 100 µM (inactive) in each case. Moreover, the GI50 with SK-MEL-5 was > 100 µM (inactive).
Regarding `COc1ccc2c(c1)[n+]([O-])c(-c1c(Cl)cccc1Cl)c(N)[n+]2[O-]`, the GI50 with SK-MEL-28 is 29.9 µM (inactive); with K562 it was 53.6 µM (inactive); in the assay with SN12C it was 46.1 µM (inactive); with SNB-19, 50 µM (inactive); with DMS-273, 37.5 µM (inactive); in the assay on A549 it was 45.2 µM (inactive). Also, the GI50 in the assay on M19-MEL is 40.3 µM (inactive); in the assay on KM12, 87.3 µM (inactive); in the assay with HL-60 it was 36.8 µM (inactive); in the assay on OVCAR-5, > 100 µM (inactive); in the assay with OVCAR-4 it was 71.8 µM (inactive); in the assay on HT-29 it was 55.5 µM (inactive). For the same compound, the GI50 with SK-MEL-5 is 22.9 µM (inactive).
With `COC(=O)c1nc(N)nc(C(=O)OC)c1C(=O)c1ccccc1`, the GI50 with SR, in the assay on SK-MEL-28, in the assay with K562, with SN12C, in the assay on SNB-19 and in the assay with A549 was > 100 µM (inactive) each time. Moreover, the GI50 in the assay on M19-MEL, with KM12, in the assay on HL-60, in the assay with OVCAR-5, in the assay with HT-29 and in the assay with RXF 393 was > 100 µM (inactive) throughout. In the assay on SK-MEL-5, the GI50 is > 100 µM (inactive).
`CCC1C(=O)OCc2c1cc1n(c2=O)C(CC)c2c-1nc1ccccc1c2Cl` (stereo not given): the GI50 with SK-MEL-28 is 35 µM (inactive); in the assay with K562, 27.9 µM (inactive); in the assay on SNB-19, 29.6 µM (inactive); with DMS-273 it was 7.85 µM (inactive); in the assay on A549, 26.7 µM (inactive); with M19-MEL it was 32.4 µM (inactive). Besides, the GI50 in the assay on KM12 is 24.6 µM (inactive); with HL-60 it was 22.2 µM (inactive); in the assay on OVCAR-5 it was 23.1 µM (inactive); in the assay on OVCAR-4, 22.4 µM (inactive); with HT-29 it was 24.1 µM (inactive); in the assay with SK-MEL-5 it was 16.7 µM (inactive).
`CN/N=C(/Cc1occc(=O)c1O)C(=O)Nc1ccc(C)c(C)c1`: the GI50 in the assay with SR, with SK-MEL-28, in the assay with K562, in the assay with SN12C, in the assay with SNB-19 and in the assay with A549 was > 100 µM (inactive) each time. Further, the GI50 with M19-MEL, in the assay on KM12, in the assay on HL-60, in the assay on OVCAR-5, in the assay with OVCAR-4 and in the assay with HT-29 was > 100 µM (inactive) throughout. Moreover, the GI50 in the assay on SK-MEL-5 is > 100 µM (inactive).
With `CN(Cc1ccccc1)C(=NC#N)N(C)Cc1ccccc1`, the GI50 in the assay on SK-MEL-28, in the assay with SN12C, in the assay on SNB-19, with DMS-273, with A549 and in the assay with M19-MEL was > 100 µM (inactive) in each case. Besides, the GI50 with KM12, in the assay with OVCAR-4, in the assay on HT-29 and in the assay on SK-MEL-5 was > 100 µM (inactive) in each case.
Take `CN(/N=C/c1ccc(OCc2cccc(COc3ccc(C=O)cc3)n2)cc1)c1cnn(-c2ccc(Cl)cc2Cl)c(=O)c1Cl`: the GI50 with SR, in the assay with SK-MEL-28, with K562, in the assay on T47D, with DU-145 and in the assay with SN12C was > 100 µM (inactive) in each case. In addition, the GI50 is 21.2 µM (inactive) with NCI/ADR-RES; 50.7 µM (inactive) in the assay on SNB-19; > 100 µM (inactive) in the assay on A549; > 100 µM (inactive) with Hs-578T; > 100 µM (inactive) in the assay on KM12; > 100 µM (inactive) in the assay with MDA-N. The GI50 was > 100 µM (inactive) with HL-60; > 100 µM (inactive) with OVCAR-5; 6.9 µM (inactive) with OVCAR-4; > 100 µM (inactive) in the assay with HT-29; 21.5 µM (inactive) with RXF 393; > 100 µM (inactive) in the assay on SK-MEL-5.
`CCOC(=O)c1nc2ccccc2nc1Oc1ccc(OC)cc1`: the GI50 in the assay on SR, in the assay with SK-MEL-28, in the assay on K562, in the assay on T47D, in the assay with DU-145 and with SN12C was > 100 µM (inactive) in each case. The GI50 in the assay with NCI/ADR-RES, in the assay with SNB-19, in the assay on A549, with Hs-578T, in the assay with KM12 and with MDA-N was > 100 µM (inactive) throughout. Besides, the GI50 in the assay on HL-60, with OVCAR-5, with OVCAR-4, in the assay on HT-29, in the assay with RXF 393 and in the assay on SK-MEL-5 was > 100 µM (inactive) in each case.
As to `CN(C)CCNc1c2ccccc2c2c3c(cccc13)C(=O)N(CCN(C)C)C2=O`, the GI50 in the assay on SK-MEL-28 is 0.0735 µM (active); in the assay with K562, 0.0522 µM (active); in the assay with SN12C, 0.0883 µM (active); in the assay with NCI/ADR-RES it was 0.0627 µM (active); with SNB-19, 0.28 µM (active); with DMS-273 it was 0.122 µM (active). The GI50 in the assay with A549 is 0.193 µM (active); with KM12, 0.232 µM (active); in the assay with HL-60, 0.229 µM (active); with OVCAR-5, 0.224 µM (active); in the assay on OVCAR-4, 0.0455 µM (active); in the assay with HT-29, 0.029 µM (active). The GI50 with RXF 393 is 0.0232 µM (active); in the assay with SK-MEL-5, 0.697 µM (active).
On to `CCCCN1C(=O)CS/C1=N/Nc1nc2c([nH]1)c(=O)n(C)c(=O)n2C`, for which the GI50 with SR is 11.9 µM (inactive); with SK-MEL-28, 20 µM (inactive); with K562 it was 30.5 µM (inactive); with T47D, 34.2 µM (inactive); in the assay on DU-145, 19.2 µM (inactive); in the assay with SN12C, 33.6 µM (inactive). Also, the GI50 was > 100 µM (inactive) in the assay with NCI/ADR-RES; 37.8 µM (inactive) in the assay on SNB-19; > 100 µM (inactive) in the assay on A549; 45.4 µM (inactive) in the assay with Hs-578T; 6.35 µM (inactive) in the assay with KM12; 14.6 µM (inactive) in the assay on MDA-N. The GI50 in the assay on HL-60 is > 100 µM (inactive); in the assay on OVCAR-5, 14.5 µM (inactive); with OVCAR-4, 19.5 µM (inactive); in the assay with HT-29, 23.9 µM (inactive); in the assay on RXF 393, > 100 µM (inactive); in the assay on SK-MEL-5 it was 37.8 µM (inactive).
Regarding `NC(=O)N/N=C1/CCC(O)CC1CC(=O)O` (stereo not given), the GI50 in the assay on SR is 30.3 µM (inactive); in the assay with SK-MEL-28, > 100 µM (inactive); with K562, > 100 µM (inactive); with T47D, > 100 µM (inactive); in the assay on DU-145 it was > 100 µM (inactive); in the assay with SN12C it was > 100 µM (inactive). In addition, the GI50 in the assay with NCI/ADR-RES, in the assay with SNB-19, with A549, in the assay with Hs-578T, in the assay with KM12 and with MDA-N was > 100 µM (inactive) throughout. Further, the GI50 was 2.7 µM (inactive) with HL-60; > 100 µM (inactive) with OVCAR-5; > 100 µM (inactive) in the assay with OVCAR-4; > 100 µM (inactive) in the assay with HT-29; > 100 µM (inactive) with RXF 393; > 100 µM (inactive) in the assay on SK-MEL-5.
